Results taken from ChEMBL document CHEMBL3817833, “Synthesis and evaluation of antitubercular activity of fluorinated 5-aryl-4-(hetero)aryl substituted pyrimidines” (Bioorg Med Chem, 2016).
Converted amounts (≈) assume the structure as drawn.

Tested on: Mycobacterium tuberculosis
Test: Antimycobacterial activity against rifampin and isoniazid resistant-Mycobacterium tuberculosis Beijing harboring Ser 531 to Leu 315 and Ser to Thr in rpoB and katG genes mutation after 24 hrs by microbroth dilution method
Assay type: functional

Compound	MIC [µM]
Fc1cc(F)cc(-c2cncnc2-c2ccco2)c1	24.01 (≈ 6.2 µg/mL)
Fc1cccc(-c2cncnc2-c2cccs2)c1	12.5 (≈ 3.2 µg/mL)
Fc1ccc(-c2cncnc2-c2ccco2)cc1	52.03 (≈ 12.5 µg/mL)
FC(F)(F)c1cc(-c2cncnc2-c2ccco2)cc(C(F)(F)F)c1	8.65 (≈ 3.1 µg/mL)
FC(F)(F)c1ccc(-c2cncnc2-c2ccco2)cc1	43.07 (≈ 12.5 µg/mL)
FC(F)(F)c1ccccc1-c1cncnc1-c1cccs1	20.24 (≈ 6.2 µg/mL)
Fc1ccc(-c2cncnc2-c2cccs2)c(F)c1	45.57 (≈ 12.5 µg/mL)
Fc1ccccc1-c1cncnc1	71.76 (≈ 12.5 µg/mL)
CC1COc2c(N3CCN(C)CC3)c(F)cc3c(=O)c(C(=O)O)cn1c23 (centres undefined) [OFLOXACIN]	0.28 (≈ 0.101 µg/mL)
FC(F)(F)c1cccc(-c2cncnc2)c1	55.76 (≈ 12.5 µg/mL)
FC(F)(F)c1ccccc1-c1cncnc1	27.66 (≈ 6.2 µg/mL)
FC(F)(F)c1cccc(-c2cncnc2-c2cccs2)c1	4.9 (≈ 1.5 µg/mL)
Fc1cccc(-c2cncnc2-c2ccco2)c1	6.24 (≈ 1.5 µg/mL)
FC(F)(F)c1ccc(-c2cncnc2)c(C(F)(F)F)c1	42.78 (≈ 12.5 µg/mL)
Fc1cccc(-c2cncnc2)c1	35.88 (≈ 6.25 µg/mL)
FC(F)(F)c1ccc(-c2cncnc2-c2cccs2)c(C(F)(F)F)c1	16.56 (≈ 6.2 µg/mL)
FC(F)(F)c1ccc(-c2cncnc2-c2cccs2)cc1	40.81 (≈ 12.5 µg/mL)

Compound	MIC [µM]
FC(F)(F)c1cc(-c2cncnc2-c2cccs2)cc(C(F)(F)F)c1	33.39 (≈ 12.5 µg/mL)
FC(F)(F)c1cccc(-c2cncnc2-c2ccco2)c1	43.07 (≈ 12.5 µg/mL)
Fc1ccccc1-c1cncnc1-c1cccs1	12.5 (≈ 3.2 µg/mL)
FC(F)(F)c1ccc(-c2cncnc2)cc1	55.76 (≈ 12.5 µg/mL)
c1ccc(-c2cncnc2-c2cccs2)cc1	26.02 (≈ 6.2 µg/mL)
c1ccc(-c2cncnc2)cc1	80.03 (≈ 12.5 µg/mL)
FC(F)(F)c1ccc(-c2cncnc2-c2ccco2)c(C(F)(F)F)c1	1.95 (≈ 0.699 µg/mL)
Fc1ccc(-c2cncnc2-c2ccco2)c(F)c1	48.41 (≈ 12.5 µg/mL)
Fc1ccc(-c2cncnc2)c(F)c1	16.13 (≈ 3.1 µg/mL)
FC(F)(F)c1ccccc1-c1cncnc1-c1ccco1	43.07 (≈ 12.5 µg/mL)
c1ccc(-c2cncnc2-c2ccco2)cc1	1.57 (≈ 0.349 µg/mL)
Fc1ccc(-c2cncnc2-c2cccs2)cc1	12.5 (≈ 3.2 µg/mL)
FC(F)(F)c1cc(-c2cncnc2)cc(C(F)(F)F)c1	5.13 (≈ 1.5 µg/mL)
Fc1ccccc1-c1cncnc1-c1ccco1	52.03 (≈ 12.5 µg/mL)
Fc1cc(F)cc(-c2cncnc2-c2cccs2)c1	45.57 (≈ 12.5 µg/mL)
Fc1ccc(-c2cncnc2)cc1	71.76 (≈ 12.5 µg/mL)
Fc1cc(F)cc(-c2cncnc2)c1	3.64 (≈ 0.699 µg/mL)
